The values that follow come from patent publication US9926264B2, “Phenylcarbamate derivatives as formyl peptide receptor modulators” (Allergan, Inc., priority 2013, dated 2018).

Structures are written as SMILES.

This test concerns the target T1, FPR2 (Homo sapiens, UniProt P25090).
T1 construct: expressed in transfected cells; host or cells: CHO-Gα16 cells
T1 sequence (P25090 1-351): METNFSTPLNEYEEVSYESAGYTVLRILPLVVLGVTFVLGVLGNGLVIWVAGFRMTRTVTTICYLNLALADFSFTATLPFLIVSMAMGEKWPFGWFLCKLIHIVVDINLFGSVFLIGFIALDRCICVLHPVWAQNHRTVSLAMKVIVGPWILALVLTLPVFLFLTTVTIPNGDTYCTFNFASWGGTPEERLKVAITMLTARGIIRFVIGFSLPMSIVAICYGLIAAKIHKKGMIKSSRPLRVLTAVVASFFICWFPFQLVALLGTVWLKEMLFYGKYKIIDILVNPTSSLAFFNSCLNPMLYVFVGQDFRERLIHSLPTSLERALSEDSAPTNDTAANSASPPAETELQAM
Nature of the test: compound-induced calcium activity on FLIPR Tetra in CHO-Gα16 cells stably expressing FPR2. The class given is cell-based. As to conditions: for Emax: efficacy value in brackets after EC50, read-out: FPR2 Gα16-CHO (% eff); for EC50: tested 0.61 to 10,000 nM. As to the method:
CHO-Gα16 cells stably expressing FPR2 were cultured in (F12, 10% FBS, 1% PSA, 400 μg/ml geneticin and 50 μg/ml hygromycin) and HEK-Gqi5 cells stable expressing FPR1 were cultured in (DMEM high glucose, 10% FBS, 1% PSA, 400 μg/ml geneticin and 50 μg/ml hygromycin). In general, the day before the experiment, 18,000 cells/well were plated in a 384-well clear bottom poly-D-lysine coated plate. The following day the screening compound-induced calcium activity was assayed on the FLIPR^Tetra. The drug plates were prepared in 384-well microplates using the EP3 and the MultiPROBE robotic liquid handling systems. Compounds were tested at concentrations ranging from 0.61 to 10,000 nM. Results are expressed as EC50 (nM) and % efficacy values.

By EC50 is commonly meant the concentration at which the effect is half-maximal. On to `CC(C)C[C@H](OC(=O)Nc1ccc(Br)cc1)C(=O)NCC(=O)OC(C)(C)C` [Compound 1, tert-Butyl {[(2S)-2-{[(4-Bromophenyl)carbamoyl]oxy}-4-methylpentanoyl]amino}acetate], for which the Emax came to 89% and the 50% effective concentration (EC50) is 526 nM.
The matching figures for `CC(C)C[C@H](OC(=O)Nc1ccc(C(F)(F)F)cc1)C(=O)NCC(=O)OC(C)(C)C` [Compound 2, tert-Butyl {[(2S)-4-Methyl-2-({[4-(trifluoromethyl)phenyl]carbamoyl}oxy)pentanoyl]amino}acetate]: 112% and 2020 nM.
The matching figures for `CC(C)C[C@H](OC(=O)Nc1ccc(Br)cc1)C(=O)N(C)CC(=O)OC(C)(C)C` [Compound 3, tert-Butyl {[(2S)-2-{[(4-Bromophenyl)carbamoyl]oxy}-4-methylpentanoyl](methyl)amino}acetate]: 101% and 109 nM.
The corresponding values for `CC(C)C[C@H](OC(=O)Nc1ccc(Br)cc1)C(=O)N(C)CCO` [Compound 4, (2S)-1-[(2-Hydroxyethyl)(methyl)amino]-4-methyl-1-oxopentan-2-yl (4-bromophenyl)carbamate] are 97% and 59 nM.
For `CCOP(=O)(CNC(=O)[C@H](CC(C)C)OC(=O)Nc1ccc(C(F)(F)F)cc1)OCC` [Compound 5, Diethyl ({[(2S)-4-methyl-2-({[4-(Trifluoromethyl)phenyl]carbamoyl}oxy)pentanoyl]amino}methyl)phosphonate], the Emax was 101% and the concentration for a half-maximal effect (EC50) came to 6.7 nM.
The matching figures for `CC(C)C[C@H](OC(=O)Nc1ccc(C(F)(F)F)cc1)C(=O)NCCO` [Compound 6, (2S)-1-[(2-Hydroxyethyl)amino]-4-Methyl-1-oxopentan-2-yl [4-(trifluoromethyl)phenyl]carbamate]: 75% and 146 nM.
The matching figures for `CC(C)C[C@H](OC(=O)Nc1ccc(Br)cc1)C(=O)NCCO` [Compound 7, (2S)-1-[(2-Hydroxyethyl)amino]-4-methyl-1-oxopentan-2-yl (4-bromophenyl)carbamate]: 98% and 35 nM.
The corresponding values for `CCOP(=O)(CNC(=O)[C@H](CC(C)C)OC(=O)Nc1ccc(Br)cc1)OCC` [Compound 8, Diethyl ({[(2S)-2-{[(4-bromophenyl)carbamoyl]oxy}-4-methylpentanoyl]amino}methyl)phosphonate] are 100% and 1.8 nM.
`CCCN(CC(=O)OC(C)(C)C)C(=O)[C@H](CC(C)C)OC(=O)Nc1ccc(Br)cc1` [Compound 9, tert-Butyl {[(2S)-2-{[(4-Bromophenyl)carbamoyl]oxy}-4-methylpentanoyl](propyl)amino}acetate]: the Emax turned out to be 104% and the EC50 was determined as 4.4 nM.
The matching figures for `CC(C)C[C@H](OC(=O)Nc1ccc(Br)cc1)C(=O)N(CC(=O)OC(C)(C)C)C(C)C` [Compound 10, tert-Butyl {[(2S)-2-{[(4-Bromophenyl)carbamoyl]oxy}-4-methylpentanoyl](propan-2-yl)amino}acetate]: 103% and 11 nM.
As to `CCN(CC(=O)OC(C)(C)C)C(=O)[C@H](CC(C)C)OC(=O)Nc1ccc(Br)cc1` [Compound 11, tert-Butyl {[(2S)-2-{[(4-Bromophenyl)carbamoyl]oxy}-4-methylpentanoyl](ethyl)amino}acetate], the Emax amounted to 97% and the EC50 was 8 nM.
As to `CC(C)C[C@H](OC(=O)Nc1ccc(C(F)(F)F)cc1)C(=O)N(C)CC(=O)OC(C)(C)C` [Compound 12, tert-Butyl {Methyl[(2S)-4-methyl-2-({[4-(trifluoromethyl)phenyl]carbamoyl}oxy)pentanoyl]amino}acetate], the Emax is 100% and the EC50 is 24.8 nM.
With `CCN(CC(=O)OC(C)(C)C)C(=O)[C@H](CC(C)C)OC(=O)Nc1ccc(C(F)(F)F)cc1` [Compound 13, tert-Butyl {Ethyl[(2S)-4-methyl-2-({[4-(trifluoromethyl)phenyl]carbamoyl}oxy)pentanoyl]amino}acetate], the Emax is 99% and the EC50 came out at 16.6 nM.
For the compound `CC(C)C[C@H](OC(=O)Nc1ccc(Br)cc1)C(=O)NCc1nnn[nH]1` [Compound 14, (2S)-4-Methyl-1-oxo-1-[(1H-tetrazol-5-ylmethyl)amino]pentan-2-yl (4-bromophenyl)carbamate], the Emax worked out at 101% and the concentration giving a half-maximal response (EC50) was 1.3 nM.
The matching figures for `CC(C)C[C@H](OC(=O)Nc1ccc(C(F)(F)F)cc1)C(=O)NCc1nnn[nH]1` [Compound 15, (2S)-4-methyl-1-oxo-1-[(1H-tetrazol-5-ylmethyl)amino]pentan-2-yl [4-(trifluoromethyl)phenyl]carbamate]: 96% and 3.6 nM.
On to `CC(C)C[C@H](OC(=O)Nc1ccc(Br)cc1)C(=O)N(C)Cc1nnn[nH]1` [Compound 16, (2S)-4-methyl-1-[methyl(1H-tetrazol-5-ylmethyl)amino]-1-oxopentan-2-yl (4-bromophenyl)carbamate], for which the Emax was found to be 98% and the 50% effective concentration (EC50) came to 0.81 nM.
The matching figures for `CC(C)C[C@H](OC(=O)Nc1ccc(C(F)(F)F)cc1)C(=O)N(C)Cc1nnn[nH]1` [Compound 17, (2S)-4-methyl-1-[methyl(1H-tetrazol-5-ylmethyl)amino]-1-oxopentan-2-yl [4-(trifluoromethyl)phenyl]carbamate]: 91% and 2.4 nM.
The corresponding values for `CC(=O)OCCNC(=O)[C@H](CC(C)C)OC(=O)Nc1ccc(C(F)(F)F)cc1` [Compound 18, 2-{[(2S)-4-Methyl-2-({[4-(trifluoromethyl)phenyl]carbamoyl}oxy)pentanoyl]amino}ethyl acetate] are 89% and 195 nM.
With `CC(C)C[C@H](OC(=O)Nc1ccc(Br)cc1)C(=O)NCC(=O)O` [Compound 19, {[(2S)-2-{[(4-Bromophenyl)carbamoyl]oxy}-4-methylpentanoyl]amino}acetic acid], the Emax is 101% and the half-maximal effective concentration (EC50) came out at 0.84 nM.
The matching figures for `CC(C)C[C@H](OC(=O)Nc1ccc(C(F)(F)F)cc1)C(=O)NCC(=O)O` [Compound 20, {[(2S)-4-Methyl-2-({[4-(trifluoromethyl)phenyl]carbamoyl}oxy)pentanoyl]amino}acetic acid]: 99% and 3.9 nM.
The corresponding values for `CC(C)C[C@H](OC(=O)Nc1ccc(Br)cc1)C(=O)N(C)CC(=O)O` [Compound 21, {[(2S)-2-{[(4-Bromophenyl)carbamoyl]oxy}-4-methylpentanoyl](methyl)amino}acetic acid] are 106% and 0.25 nM.
The matching figures for `CCCN(CC(=O)O)C(=O)[C@H](CC(C)C)OC(=O)Nc1ccc(Br)cc1` [Compound 22, {[(2S)-2-{[(4-Bromophenyl)carbamoyl]oxy}-4-methylpentanoyl](propyl)amino}acetic acid]: 91% and 0.44 nM.
As for `CC(C)C[C@H](OC(=O)Nc1ccc(Br)cc1)C(=O)N(CC(=O)O)C(C)C` [Compound 23, {[(2S)-2-{[(4-Bromophenyl)carbamoyl]oxy}-4-methylpentanoyl](propan-2-yl)amino}acetic acid], the Emax is 105% and the EC50 came out at 0.32 nM.
